Test results published in patent US6602676B1, “Testing method” (Milk Development Council, priority 1999, dated 2003).

Tested on: cows with luteal P4 insufficiency
Assay: Study II: pregnancy rate after P4 supplementation with CIDR on Day 5 post AI in cows with luteal P4 insufficiency
Format: in vivo, Holstein-Friesian cows
Conditions: mean milk P4 on Day 5 post AI 1 to 1.99 ng/ml; CIDR inserted Day 5 post AI for seven days
Procedure: Milk samples for P4 assay and reproductive data were collected from British Friesian and Holstein-Friesian cows in seven commercial herds. The cows were housed in a free-stall system and fed rations to meet their production and maintenance requirements. Data on calving date, parity, AI date and pregnancy were recorded. For the preliminary study, milk samples were collected daily for P4 determination from Day 7 postpartum until 100 days of the next gestation. The sampling protocol for animals in Studies I and II was limited to three milk samples per animal on Days 0, 5 and 24 post AI. […]
Milk P4 concentrations in an un-extracted aliquot of whole milk were measured using either radio immunoassay (RIA) as described by Lamming and Bulman (Lamming, G. E. and D. C. Bulman (1976) Br. Vet. J. 132: 507-517) and Bulman and Lamming (Bulman D. C. and G. E. Lamming (1978) J. Reprod. Fertil. 54: 447-458) or enzyme linked immunosorbent assay (ELISA) kit (Ridgeway Science Ltd., Gloucestershire, UK) as illustrated by Darwash et al. (Darwash A. O et al (1999b) Anim Sci. (in press)). All samples and quality controls (QC) were assayed in duplicate and the mean value of both readings were used to indicate milk P4 concentrations. […]
Following determination of pregnancy, the accuracy of using milk P4 concentrations on Day 24 post AI to predict pregnancy rates was calculated. […]

SMILES: CC(=O)[C@H]1CC[C@H]2[C@@H]3CCC4=CC(=O)CC[C@]4(C)[C@H]3CC[C@]12C [P4, progesterone]
- Pregnancy (%), treated: 57.9%
